According to patent publication EP0597303A2, “Cephalosporin derivatives” (priority 1992, dated 1994):
Structures can show the parent of a compound that is named as a salt.

Experiments:
Test in all cases: MIC, Agar (Mueller Hinton) Dilution Method
Assay type in all cases: cell-based
[1] = tested on: Proteus vulgaris ATCC 6380; conditions: ATCC6380; Proteus vulgaris ATCC 6380; constitutive ß-lactamase producer; Gram Negative; read-out: MIC
Source text: (§1) The in vitro activity of the compounds of formula I of the present invention as measured by the Minimum Inhibitory Concentration (MIC) in micrograms/ml utilizing the Agar (Mueller Hinton) Dilution Method against a variety of Gram-positive and Gram-negative organisms, is set forth in Table 1.

Xan. maltophilia 2897B = conditions: Stenotrophomonas maltophilia, Gram Negative
Source text: as §1

E. coli DC-0 = conditions: Escherichia coli, DC0, Gram Negative
Source text: as §1

E. coli 4 = conditions: Escherichia coli, 4
Source text: as §1

K. pneumoniae 369 = conditions: Klebsiella pneumoniae; K. pneumoniae 369; Gram Negative; read-out: MIC
Source text: as §1

E. coli Leo HA2M4 = conditions: Escherichia coli, LEOHA2M4
Source text: as §1

E. coli 94 = conditions: Escherichia coli, Gram Negative
Source text: as §1

Ps. aeruginosa K799/61 = conditions: Pseudomonas aeruginosa, K799/61
Source text: as §1

Ps. cepacia 1973 B = conditions: Burkholderia cepacia, Gram Negative
Source text: as §1

Ps. aeruginosa 56M = conditions: Pseudomonas aeruginosa, Gram Negative
Source text: as §1

Escherichia coli 257 = conditions: Gram Negative
Source text: as §1

Ent. hirae ATCC 8043 = conditions: Enterococcus hirae, ATCC8043, Gram Positive and Others
Source text: as §1

K. oxytoca 1082EN = conditions: Klebsiella oxytoca; K. oxytoca 1082EN; Gram Negative; read-out: MIC
Source text: as §1

E. coli DC-2 = conditions: Escherichia coli, DC2, Gram Negative
Source text: as §1

Ser. marcescens MA = conditions: Serratia marcescens, Gram Negative
Source text: as §1

Staph. pyogenes 4 = conditions: Staph. pyogenes 4; Gram Positive and Others; read-out: MIC
Source text: as §1

Prot. vulgaris 1028 BC = conditions: Proteus vulgaris, 1028BC
Source text: as §1

Enter. cloacae 4192-2 = conditions: Enterobacter cloacae, 41922; Enter. cloacae 4192-2; Gram Negative; read-out: MIC
Source text: as §1

Enterobacter cloacae P99 = tested on: Enterobacter cloacae P99
Source text: as §1

[2] = tested on: Str. pneumoniae N82-012-MC; conditions: Streptococcus pneumoniae, N82012MC; Str. pneumoniae N82-012-MC; Gram Positive and Others; read-out: MIC
Source text: as §1

Ps. aeruginosa B = conditions: Pseudomonas aeruginosa, Gram Negative
Source text: as §1

E. coli HMS1 = conditions: Escherichia coli, HMS1
Source text: as §1

Ps. aeruginosa 56-1B = conditions: Pseudomonas aeruginosa, 561B; Ps. aeruginosa 56-1B; Gram Negative; read-out: MIC
Source text: as §1

Staph. aureus 3647B = conditions: Staphylococcus aureus; Staph. aureus 3647B; Gram Positive and Others; read-out: MIC
Source text: as §1

E. coli 1527E = conditions: Escherichia coli, Gram Negative
Source text: as §1

Ps. aeruginosa 56 = conditions: Pseudomonas aeruginosa, Gram Negative
Source text: as §1

[3] = tested on: Staphylococcus aureus Smith; conditions: Staphylococcus aureus Smith; Gram Positive and Others; read-out: MIC
Source text: as §1

Ps. aeruginosa 1973 E = conditions: Pseudomonas aeruginosa, Gram Negative
Source text: as §1

Ps. aeruginosa K799/WT = conditions: Pseudomonas aeruginosa, Gram Negative
Source text: as §1

Bacillus subtilis 558 = conditions: Bacillus subtilis, 558
Source text: as §1

Prot. mirabilis 503-1136 = conditions: Proteus mirabilis, 5031136; Prot. mirabilis 503-1136; Gram Negative; read-out: MIC
Source text: as §1

Serratia marcescens SM = conditions: Serratia marcescens SM; constitutive ß-lactamase producer; Gram Negative; read-out: MIC
Source text: as §1

Prot. mirabilis 90 = conditions: Proteus mirabilis; Prot. mirabilis 90; Gram Negative; read-out: MIC
Source text: as §1

A. calcoaceticus PCI-3 = conditions: Acinetobacter calcoaceticus, PCI3, Gram Negative
Source text: as §1

Micrococcus luteus PCI = conditions: Micrococcus luteus
Source text: as §1

Candida albicans 155 = conditions: Gram Positive and Others
Source text: as §1

Prot. vulgaris 100 = conditions: Proteus vulgaris, Gram Negative
Source text: as §1

Ps. aeruginosa 18SH = conditions: Pseudomonas aeruginosa, constitutive ß-lactamase producer, Gram Negative
Source text: as §1

E. coli 2008 E = conditions: Escherichia coli; E. coli 2008 E; Gram Negative; read-out: MIC
Source text: as §1

E. coli 2722B = conditions: Escherichia coli, Gram Negative
Source text: as §1

Compound: N#CCC(=O)N[C@@H]1C(=O)N2C(C(=O)O)=C(COC(=O)NC3CCN(c4c(F)cc5c(=O)c(C(=O)O)cn(C6CC6)c5c4F)C3)CS[C@H]12 (stereo partly shown) [Formula Ib, [6R,7R]-3-[[[[[1-(3-Carboxy-1-cyclopropyl-6,8-difluoro-1,4-dihydro-4-oxo-7-quinolinyl-3-[R,S]-pyrrolidinyl]-amino]carbonyl]oxy]methyl]-7-[(cyanoacetyl)amino]-8-oxo-5-thia-1-azabicyclo[4.2.0]oct-2-ene-2-carboxyiic acid monosodium salt]
- MIC [1]: 0.25 µg/mL
- MIC (Xan. maltophilia 2897B): 0.25 µg/mL
- MIC (E. coli DC-0): 1 µg/mL
- MIC (E. coli 4): 0.125 µg/mL
- MIC (K. pneumoniae 369): 0.25 µg/mL
- MIC (E. coli Leo HA2M4): 0.0313 µg/mL
- MIC (E. coli 94): 0.125 µg/mL
- MIC (Ps. aeruginosa K799/61): 0.125 µg/mL
- MIC (Ps. cepacia 1973 B): 2 µg/mL
- MIC (Ps. aeruginosa 56M): 0.25 µg/mL
- MIC (Escherichia coli 257): 0.125 µg/mL
- MIC (Ent. hirae ATCC 8043): 2 µg/mL
- MIC (K. oxytoca 1082EN): 0.0625 µg/mL
- MIC (E. coli DC-2): 0.25 µg/mL
- MIC (Ser. marcescens MA): 4 µg/mL
- MIC (Staph. pyogenes 4): 0.0625 µg/mL
- MIC (Prot. vulgaris 1028 BC): 0.125 µg/mL
- MIC (Enter. cloacae 4192-2): 0.0625 µg/mL
- MIC (Enterobacter cloacae P99): 0.0313 µg/mL
- MIC [2]: 0.5 µg/mL
- MIC (Ps. aeruginosa B): 0.25 µg/mL
- MIC (E. coli HMS1): 0.0313 µg/mL
- MIC (Ps. aeruginosa 56-1B): 0.5 µg/mL
- MIC (Staph. aureus 3647B): 0.25 µg/mL
- MIC (E. coli 1527E): 0.0625 µg/mL
- MIC (Ps. aeruginosa 56): 0.5 µg/mL
- MIC [3]: 0.25 µg/mL
- MIC (Ps. aeruginosa 1973 E): 0.5 µg/mL
- MIC (Ps. aeruginosa K799/WT): 0.5 µg/mL
- MIC (Bacillus subtilis 558): 0.125 µg/mL
- MIC (Prot. mirabilis 503-1136): 0.25 µg/mL
- MIC (Serratia marcescens SM): 0.25 µg/mL
- MIC (Prot. mirabilis 90): 1 µg/mL
- MIC (A. calcoaceticus PCI-3): 0.25 µg/mL
- MIC (Micrococcus luteus PCI): 0.125 µg/mL
- MIC (Candida albicans 155): > 128 µg/mL
- MIC (Prot. vulgaris 100): 0.25 µg/mL
- MIC (Ps. aeruginosa 18SH): 0.5 µg/mL
- MIC (E. coli 2008 E): 0.0625 µg/mL
- MIC (E. coli 2722B): ≤ 0.0156 µg/mL
